# Data from publication PMC11292009, “Mapping protein binding sites by photoreactive fragment pharmacophores” (Communications Chemistry, 2024).
# Tests used:
# Type in all cases: binding
# STAT5B-NTD [1] = tested on: T1, STAT5B-NTD; experiment: Intact MS photoaffinity labeling screen, STAT5B-NTD (365 nm, UHPLC-MS); conditions: for MS labeling percentage, STAT5B: STAT5B-NTD, 365 nm 10 min, no photocatalyst;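 on MS labeling percentage, STAT5B: 0.17 µL of 100 mM DMSO fragment stock added to the protein sample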
# T1 construct: His-SUMO (N, cleaved yes); made in house; host or cells: E. coli BL21 RILP
# Summary of the method: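 UV irradiation at 365 nm for 10 min at 4 °C. Labeling read by intact-protein UHPLC-MS, positive ion mode, m/z 100–2000.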
# lysozyme (Lyo) = experiment: Intact protein MS photoaffinity labeling screen, lysozyme; conditions: intact protein MS after 10 min irradiation
# Summary of the method: (§1)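 Fragments tested one per well, each incubated 15 min with protein to form non-covalent complexes before photo-crosslinking. Labeling read directly by intact protein MS as mass additions matching fragment adducts, expressed as labeling %.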
# BRD4-BD1 = tested on: T2, BRD4-BD1; experiment: Intact MS photoaffinity labeling screen, BRD4-BD1 (302 nm, LCMS-TOF); conditions: for MS labeling percentage, BRD4: BRD4-BD1, 302 nm 10 min
# T2 construct: screened the PhP library against the first bromodomain of BRD4 (BRD4-BD1); purchased GSK/GenScript
# Summary of the method: (§2)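 Labeling detected as mass additions in deconvoluted intact-protein LCMS-TOF spectra. Protein at 1 μM in PBS was first mixed with one fragment per well on ice for 15 min, followed by 10 min UV exposure at 302 nm.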
# [2] = tested on: carbonic anhydrase II (CA); experiment: Intact protein MS photoaffinity labeling screen, carbonic anhydrase; conditions: intact protein MS after 10 min irradiation
# Summary of the method: as §1
# KRas^G12D = tested on: T3, KRas^G12D; experiment: Intact MS photoaffinity labeling screen, KRas G12D (302 nm, LCMS-TOF); conditions: for MS labeling percentage, KRas: KRas G12D, 302 nm 10 min
# T3 construct: purchased GSK/GenScript
# Summary of the method: as §2
# STAT5B-NTD [3] = tested on: T1, STAT5B-NTD; experiment: Intact MS labeling screen, STAT5B-NTD conjugated with photocatalyst Ir-G2-PEG3-COOH (450 nm); conditions: 450 nm 10 min;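 further: 0.14 µL of 100 mM DMSO fragment stock added to the conjugate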
# Summary of the method: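 Ir-G2-PEG3-COOH photocatalyst (10 eq) activated 30 min with EDC/NHS/BOP, then conjugated to STAT5B-NTD (7 µM) overnight at RT or 1 h at 37 °C in dark. PhP added, 1 h dark, then 450 nm irradiation 10 min at 4 °C; labeling read by intact LC-MS, positive ion mode, m/z 100–2000.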
# myoglobin (Myo) = experiment: Intact protein MS photoaffinity labeling screen, myoglobin; conditions: intact protein MS after 10 min irradiation
# Summary of the method: as §1
# [4] = hit flag 1/0, sheet PhP, photoaffinity labeling screen
# [5] = sheet PhP, experimental hit status flag given as 0 or 1
SMILES,"MS labeling percentage, STAT5B (STAT5B-NTD [1]) [%]",STAT5B-NTD (experimental hit status) (STAT5B-NTD [1]; [4]),"MS labeling percentage, Lyo (lysozyme (Lyo)) [%]","MS labeling percentage, BRD4 (BRD4-BD1) [%]",BRD4-BD1 (experimental hit status) (BRD4-BD1; [4]),"MS labeling percentage, CA [2] [%]","MS labeling percentage, KRas (KRas^G12D) [%]",KRAS-G12D (experimental hit status) (KRas^G12D; [4]),"MS labeling percentage, STAT5B+photocat (STAT5B-NTD [3]) [%]","MS labeling percentage, Myo (myoglobin (Myo)) [%]",STAT5B-NTD (experimental hit status) (STAT5B-NTD [1]; [5]),BRD4-BD1 (experimental hit status) (BRD4-BD1; [5]),KRAS-G12D (experimental hit status) (KRas^G12D; [5])
"CC1(CCC(=O)Nc2cccc(-n3cnnn3)c2)N=N1 [PhP042, N1=NC1(C)CCC(=O)Nc2cccc(c2)-n3cnnn3]",2,0,0,1,0,0.9,0.5,0,17.8,0.2,–,–,–
"Cn1ccnc1-c1cc(NC(=O)CCC2(C)N=N2)n[nH]1 [PhP043, Cn1ccnc1-c2cc(n[nH]2)NC(=O)CCC3(C)N=N3]",1,0,0,0.8,0,0.5,0.3,0,0,0.1,–,–,–
"COc1ccccc1OCCNC(=O)CCC1(C)N=N1 [PhP044, COc1ccccc1OCCNC(=O)CCC2(C)N=N2]",1,0,0,0.2,0,0.2,0,0,1.4,0,–,–,–
"CC1(CCC(=O)NCC(C)(C)NS(C)(=O)=O)N=N1 [PhP045, CS(=O)(=O)NC(C)(C)CNC(=O)CCC1(C)N=N1]",0,0,0,0.4,0,0.5,0.2,0,2.3,0.2,–,–,–
"CC(C)CN1CCOC(CNC(=O)CCC2(C)N=N2)C1 (centres unmarked) [PhP046, CC(C)CN1CCOC(C1)CNC(=O)CCC2(C)N=N2]",1,0,0,0.1,0,0.2,0.2,0,0.7,0.3,–,–,–
"CC1(CCC(=O)NC2CCc3nccn3C2)N=N1 (centres unmarked) [PhP047, N1=NC1(C)CCC(=O)NC(CC2)Cn(c23)ccn3]",0,0,0,0.5,0,0.6,0.1,0,2.1,0,–,–,–
"CC1(CCC(=O)Nc2sc3c(c2C(N)=O)CCC(C(C)(C)C)C3)N=N1 (centres unmarked) [PhP049, CC(C)(C)C(CC1)Cc(c12)sc(c2C(=O)N)NC(=O)CCC3(C)N=N3]",1,0,0,0,0,0.2,0.1,0,2,0.1,–,–,–
"CC1(CCC(=O)NCCCn2ccnc2)N=N1 [PhP050, N1=NC1(C)CCC(=O)NCCCn2ccnc2]",1,0,0,0.4,0,0.3,0.6,0,0.4,0.2,–,–,–
"CC1(CCC(=O)NCCSCc2ccccc2)N=N1 [PhP051, N1=NC1(C)CCC(=O)NCCSCc2ccccc2]",0,0,0,0.2,0,1,0,0,1,0.1,–,–,–
"CC1(CCC(=O)NCc2ccc(-c3cncnc3)cc2)N=N1 [PhP052, N1=NC1(C)CCC(=O)NCc2ccc(cc2)-c3cncnc3]",1,0,0,1.5,0,1.2,1.3,0,11.4,1.3,–,–,–
"CC1(CCC(=O)Nc2ccc(N3CCCCC3)cc2C(N)=O)N=N1 [PhP054, N1=NC1(C)CCC(=O)Nc2ccc(cc2C(=O)N)N3CCCCC3]",2.9,0,0,0.6,0,0,0,0,9.8,0,–,–,–
"CN(C)Cc1nc2ccc(NC(=O)CCC3(C)N=N3)cc2o1 [PhP055, CN(C)Cc(n1)oc(c12)cc(cc2)NC(=O)CCC3(C)N=N3]",0,0,0,0.7,0,0,0.3,0,0.8,0,–,–,–
"CC1(CCC(=O)NCCCN2CCN(C(=O)OC(C)(C)C)CC2)N=N1 [PhP056, CC(C)(C)OC(=O)N1CCN(CC1)CCCNC(=O)CCC2(C)N=N2]",0,0,0,0.2,0,0.3,0,0,1.2,0,–,–,–
"CC1(CCC(=O)NCc2c(O)ccc3ccccc23)N=N1 [PhP057, N1=NC1(C)CCC(=O)NCc(c(O)cc2)c(c23)cccc3]",0,0,2.2,1.6,0,0.4,1.1,0,3.4,0.7,–,–,–
"CC1(CCC(=O)N[C@@H](Cc2ccc(O)cc2)C(N)=O)N=N1 [PhP058, N1=NC1(C)CCC(=O)N[C@H](C(=O)N)Cc2ccc(O)cc2]",1,–,1.2,0.4,–,0,0,–,0.5,0.1,0,0,0
"CC1(CCC(=O)NCc2cccc(C(N)=O)c2)N=N1 [PhP059, N1=NC1(C)CCC(=O)NCc2cccc(c2)C(=O)N]",1,–,0,0.7,–,0.6,0.8,–,0.3,0.7,0,0,0
"Cc1n[nH]c(C)c1CCNC(=O)CCC1(C)N=N1 [PhP061, Cc1n[nH]c(C)c1CCNC(=O)CCC2(C)N=N2]",1,–,0,0.2,–,0.2,0.1,–,0,0.2,0,0,0
